Results taken from PubChem BioAssay (NCI).
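Five concentrations, 48 hours, 96-well plates. Abbreviation: GI50, concentration required for 50% inhibition of growth. At the TGI there is no net growth.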

Experiments:
Assay in all cases: NCI-60 cell line screen, 48 h
UO-31 renal = system: UO-31 renal
SF-295 CNS = system: SF-295 CNS
NCI-H460 lung = system: NCI-H460 lung
NCI-H23 lung = system: NCI-H23 lung
CAKI-1 renal = system: CAKI-1 renal
HCT-15 colon = system: HCT-15 colon
UACC-62 melanoma = system: UACC-62 melanoma
SK-MEL-5 melanoma = system: SK-MEL-5 melanoma
786-0 renal = system: 786-0 renal
HCT-116 colon = system: HCT-116 colon
SW-620 colon = system: SW-620 colon
OVCAR-5 ovarian = system: OVCAR-5 ovarian
TK-10 renal = system: TK-10 renal
NCI/ADR-RES ovarian = system: NCI/ADR-RES ovarian
SR leukemia = system: SR leukemia
HL-60(TB) leukemia = system: HL-60(TB) leukemia
MDA-MB-231 breast = system: MDA-MB-231 breast
OVCAR-3 ovarian = system: OVCAR-3 ovarian
SK-MEL-28 melanoma = system: SK-MEL-28 melanoma
MDA-MB-435 = system: MDA-MB-435
KM12 colon = system: KM12 colon
T-47D breast = system: T-47D breast
A498 renal = system: A498 renal
BT-549 breast = system: BT-549 breast
SK-MEL-2 melanoma = system: SK-MEL-2 melanoma
MOLT-4 leukemia = system: MOLT-4 leukemia
SF-539 CNS = system: SF-539 CNS

Work on `CCCCCc1c(C)[nH]c(/C=c2\[nH]/c(=C3/C=c4ccccc4=N3)cc2OC)c1C` yielded a GI50 (UO-31 renal) of 88.2 nM, a TGI (UO-31 renal) of 329 nM and a GI50 (SF-295 CNS) of 90.2 nM. The TGI (SF-295 CNS) was 452 nM, the GI50 (NCI-H460 lung) was 61.4 nM and the TGI (NCI-H460 lung) was 11200 nM. For the same compound, the GI50 (NCI-H23 lung) was 236 nM, the TGI (NCI-H23 lung) was 3100 nM and the GI50 (CAKI-1 renal) was 42.5 nM. The TGI (CAKI-1 renal) was 1560 nM, the GI50 (HCT-15 colon) was 33.7 nM and the TGI (HCT-15 colon) was 1310 nM. It also gave a GI50 (UACC-62 melanoma) of 62.4 nM, a TGI (UACC-62 melanoma) of 355 nM and a GI50 (SK-MEL-5 melanoma) of 32.4 nM. It also gave a TGI (SK-MEL-5 melanoma) of 110 nM, a GI50 (786-0 renal) of 49 nM and a TGI (786-0 renal) of 242 nM. For the same compound, the GI50 (HCT-116 colon) was 28 nM, the TGI (HCT-116 colon) was 1070 nM and the GI50 (SW-620 colon) was 34.1 nM. The TGI (SW-620 colon) was 2840 nM, the GI50 (OVCAR-5 ovarian) was 65.4 nM and the TGI (OVCAR-5 ovarian) was 1810 nM. For the same compound, the GI50 (TK-10 renal) was 50.4 nM, the TGI (TK-10 renal) was 716 nM and the GI50 (NCI/ADR-RES ovarian) was 170 nM. It also gave a TGI (NCI/ADR-RES ovarian) of 3720 nM, a GI50 (SR leukemia) of 33.5 nM and a TGI (SR leukemia) of 529 nM. The GI50 (HL-60(TB) leukemia) was 124 nM, the TGI (HL-60(TB) leukemia) was 3630 nM and the GI50 (MDA-MB-231 breast) was 26.6 nM. It also gave a TGI (MDA-MB-231 breast) of 232 nM, a GI50 (OVCAR-3 ovarian) of 109 nM and a TGI (OVCAR-3 ovarian) of 699 nM. For the same compound, the GI50 (SK-MEL-28 melanoma) was 125 nM, the TGI (SK-MEL-28 melanoma) was 1220 nM and the GI50 (MDA-MB-435) was 45.5 nM. It also gave a TGI (MDA-MB-435) of 1160 nM, a GI50 (KM12 colon) of 51.1 nM and a TGI (KM12 colon) greater than 100000 nM. It also gave a GI50 (T-47D breast) of 58.8 nM, a TGI (T-47D breast) of 698 nM and a GI50 (A498 renal) of 94.4 nM. For the same compound, the TGI (A498 renal) was 1750 nM, the GI50 (BT-549 breast) was 80 nM and the TGI (BT-549 breast) was 2140 nM. It also gave a GI50 (SK-MEL-2 melanoma) of 39.4 nM, a TGI (SK-MEL-2 melanoma) of 193 nM and a GI50 (MOLT-4 leukemia) of 102 nM. It also gave a TGI (MOLT-4 leukemia) of 3850 nM, a GI50 (SF-539 CNS) of 60.4 nM and a TGI (SF-539 CNS) of 659 nM.
